One assay concerns the target EPH-A2 (Homo sapiens (Human), UniProt P29317). In words: Enzyme selectivity test (ELISA), EPH-A2. Format: biochemical. As for the experimental part:
1) Enzyme reaction substrate Poly(Glu, Tyr) 4:1 was diluted to 20 μg/mL with potassium-free PBS (10 mM sodium phosphate buffer, 150 mM NaCl, pH 7.2-7.4), and the microtiter plate was coated with 125 μL/well and placed at 37° C. for 12-16 hours of reaction. The liquid in the well was discard. The plate was washed three times with T-PBS (potassium-free PBS containing 0.1% Tween-20, 200 μL/well), 5 minutes each time. The ELISA plate was dried in an oven at 37° C. for 1 to 2 hours.
2) Reaction buffer (50 mM HEPES pH 7.4, 50 mM MgCl2, 0.5 mM MnCl2, 0.2 mM Na3VO4, 1 mM DTT) diluted ATP solution (49 μL) was added to each well, 1 μL of the compound to be tested was added to each well, and then 50 μL of DDR2 kinase domain recombinant protein diluted in the reaction buffer was added to start the reaction. Two control wells without ATP were set in each experiment. The plate placed on a shaker (100 rpm) at 37° C. for 1 hour of reaction. The liquid in the well was discarded and the plate was washed three times with T-PBS.
3) Antibody PY99 dilution solution (the antibody was diluted 1:500 with T-PBS containing BSA 5 mg/mL) was added at 100 μL/well, and shaken on a shaker at 37° C. for 0.5 hour of reaction. The liquid in the well was discarded and the plate was washed three times with T-PBS.
4) Horseradish peroxidase labeled goat anti-murine secondary antibody dilution solution (the antibody is diluted 1:2000 with T-PBS containing BSA 5 mg/ml) was added at 100 μL/well, and shaken on a shaker at 37° C. for 0.5 hour of reaction. The liquid in the well was discarded and the plate was washed three times with T-PBS.
5) 2 mg/ml of OPD color developing solution [diluted with 0.1 M citric acid-sodium citrate buffer (pH=5.4) containing 0.03% H2O2] was added at 100 μL/well and reacted for 1 to 10 minutes at 25° C. in the dark.
6) 2M H2SO4 was added at 50 μL/well to stop the reaction, and a tunable wavelength microplate reader VERSAmax was used for reading at a wavelength of 490 nm.
The IC50 value was obtained by four-parameter regression using the software that came with the microplate reader. […]
On the technique in general: ELISA stands for enzyme-linked immunosorbent assay.

The subject of a further assay is DDR2. Put plainly: Phosphorylation level of DDR2 (Western Blot). It counts as cell-based, human. The following applies: MRC-5, TGF-β1 treatment. The method, then:
(§1) 1) Preparation of cell protein samples: the cell culture liquid was discarded, wash was performed once with PBS, and samples were collected by adding 1×SDS-Loading. after the samples were collected, they were placed in a metal bath at 100° C., and the samples were boiled for 10 minutes, and then the samples were stored at 4° C. for waiting for subsequent test.
(§2) 2) Gel preparation and sample loading: according to the molecular weight of the detected protein, different concentrations of separation gel were selected. after filling the 1× electrophoresis buffer, an equal volume of protein sample 4 μl and protein marker were added on the far left to right in sequence.
(§3) When the sample was in the concentrated gel, the voltage was set to 80 V; when the sample was electrophoresed to the separation gel, the voltage was increased to 120 V until the bromophenol blue was electrophoresed to reach the bottom of the gel, and the electrophoresis ended. […]
(§4) 8) Secondary antibodies: the film with the primary antibodies was rewarmed and incubated for about half an hour, and then the primary antibodies were recovered and the film was washed quickly with TBST solution 3 times, 10 minutes each time. […] The dilution ratio of the secondary antibody dedicated for DDR2 was 1:5000; The dilution ratio for the rest of the secondary antibodies were 1:8000, ready for use. […]
For orientation: Immunoblotting shows a protein as a band on a membrane.

The next assay has as its system kinases. In words: Enzyme selectivity test, kinase panel overall. The following applies: kinase panel of Table 5. Format: biochemical. An excerpt: Except that the enzyme was different, other test methods and conditions were the same as the DDR2 enzyme activity test method in Effect example 1.
The subject of another assay is MRC-5 induced by TGF-β1. Put plainly: Activation of MRC-5 induced by TGF-β1. Format: cell-based, human. To be noted: levels of Fibronectin, α-SMA, Collagen1-α1. As for the experimental part: as §1, §2, §3, §4

Chain of EPH-A2 (P29317 24-976, species assumed): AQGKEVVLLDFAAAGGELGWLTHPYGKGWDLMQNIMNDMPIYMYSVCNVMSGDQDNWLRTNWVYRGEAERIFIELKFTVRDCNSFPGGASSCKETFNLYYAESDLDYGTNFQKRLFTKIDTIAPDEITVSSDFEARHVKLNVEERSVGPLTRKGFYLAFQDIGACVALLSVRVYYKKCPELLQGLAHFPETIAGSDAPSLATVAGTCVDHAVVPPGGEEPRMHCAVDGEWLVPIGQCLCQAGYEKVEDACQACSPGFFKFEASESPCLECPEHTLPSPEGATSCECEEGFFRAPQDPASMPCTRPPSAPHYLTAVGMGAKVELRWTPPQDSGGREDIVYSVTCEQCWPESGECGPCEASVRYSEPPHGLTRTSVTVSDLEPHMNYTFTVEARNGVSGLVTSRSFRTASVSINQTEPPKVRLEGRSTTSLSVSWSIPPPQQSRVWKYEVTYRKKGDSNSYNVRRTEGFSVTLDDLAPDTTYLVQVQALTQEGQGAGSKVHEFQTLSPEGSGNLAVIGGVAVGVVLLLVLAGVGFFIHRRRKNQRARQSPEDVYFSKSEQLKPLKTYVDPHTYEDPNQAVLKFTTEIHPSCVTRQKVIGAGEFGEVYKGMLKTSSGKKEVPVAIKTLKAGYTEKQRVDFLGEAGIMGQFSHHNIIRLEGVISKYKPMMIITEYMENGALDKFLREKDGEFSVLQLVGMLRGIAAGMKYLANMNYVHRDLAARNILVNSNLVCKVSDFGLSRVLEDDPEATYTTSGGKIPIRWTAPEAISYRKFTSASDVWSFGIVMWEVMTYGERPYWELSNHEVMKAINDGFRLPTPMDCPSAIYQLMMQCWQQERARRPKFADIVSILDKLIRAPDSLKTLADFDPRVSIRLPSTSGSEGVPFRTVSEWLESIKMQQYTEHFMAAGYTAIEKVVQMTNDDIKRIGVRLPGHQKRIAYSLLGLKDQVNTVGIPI

By IC50 is commonly meant the concentration that inhibits the measured activity by half. A high value points to a need for much substance. With `O=C(Nc1cccc(C(F)(F)F)c1)c1ccc(C2CC2)c(-c2ccc3nc(Nc4cnn(C5CC5)c4)ncc3c2)c1` [Compound S15, 4-cyclopropyl-3-(2-((1-cyclopropyl-1H-pyrazol-4-yl)amino)quinazolin-6-yl)-N-(3-(trifluoromethyl)phenyl)benzamide], the IC50 against EPH-A2 was over 0.01 µM. The “phosphorylation level of DDR2” value in the assay on DDR2 was “effectively inhibit the phosphorylation level of DDR2”. Further, in the assay with kinases, the selectivity for kinases entry is listed as “good selectivity”. Further, in the assay on MRC-5 induced by TGF-β1, the “activation of MRC-5 induced by TGF-β1” value is listed as “inhibit the activation of MRC-5 induced by TGF-β1 in a dose-dependent manner”.

These data come from patent publication US11655239B2 (SHANGHAI INSTITUTE OF MATERIAL MEDICA, CHINESE ACADEMY OF …, priority 2019, dated 2023).
